# Data as given in ChEMBL document CHEMBL1255419, “Pharmacokinetic-pharmacodynamic assessment of faropenem in a lethal murine Bacillus anthracis inhalation postexposure prophylaxis model” (Antimicrob Agents Chemother, 2010).
# Activity calls are given as the source filed them. The calls are words filed in the database; no cut-off is given here.
# Columns and labels:
# Bacillus anthracis [1] = assay: microbe, parasite or virus in culture; format: functional
# Bacillus anthracis [2] = assay: microbe, parasite or virus in culture; format: functional; remark: listed apart in the source
# Bacillus anthracis [3] = assay: microbe, parasite or virus in culture; format: functional; remark: listed apart in the source
# Bacillus anthracis [4] = assay: Antibacterial activity against beta-lactamase Bla1 and Bla2-producing Bacillus anthracis Sterne by broth microdilution method; format: functional
# Bacillus anthracis [5] = assay: microbe, parasite or virus in culture; format: functional; remark: listed apart in the source
# Bacillus anthracis [6] = assay: microbe, parasite or virus in culture; format: functional; remark: listed apart in the source
# Bacillus anthracis [7] = assay: microbe, parasite or virus in culture; format: functional; remark: listed apart in the source
# Bacillus anthracis [8] = assay: microbe, parasite or virus in culture; format: functional; remark: listed apart in the source
# Bacillus anthracis [9] = assay: microbe, parasite or virus in culture; format: functional; remark: listed apart in the source
# Bacillus anthracis [10] = assay: microbe, parasite or virus in culture; format: functional; remark: listed apart in the source
# Bacillus anthracis [11] = assay: microbe, parasite or virus in culture; format: functional; remark: listed apart in the source
# Bacillus anthracis [12] = assay: microbe, parasite or virus in culture; format: functional; remark: listed apart in the source
# Bacillus anthracis [13] = assay: microbe, parasite or virus in culture; format: functional; remark: listed apart in the source
# Bacillus anthracis [14] = assay: microbe, parasite or virus in culture; format: functional; remark: listed apart in the source
# Bacillus anthracis [15] = assay: microbe, parasite or virus in culture; format: functional; remark: listed apart in the source
# Bacillus anthracis [16] = assay: microbe, parasite or virus in culture; format: functional; remark: listed apart in the source
# Bacillus anthracis [17] = assay: microbe, parasite or virus in culture; format: functional; remark: listed apart in the source
# Bacillus anthracis [18] = assay: microbe, parasite or virus in culture; format: functional; remark: listed apart in the source
# Bacillus anthracis [19] = assay: microbe, parasite or virus in culture; format: functional; remark: listed apart in the source
# Bacillus anthracis [20] = assay: microbe, parasite or virus in culture; format: functional; remark: listed apart in the source
# Bacillus anthracis [21] = assay: microbe, parasite or virus in culture; format: functional; remark: listed apart in the source
# Bacillus anthracis [22] = assay: microbe, parasite or virus in culture; format: functional; remark: listed apart in the source
# Bacillus anthracis [23] = assay: microbe, parasite or virus in culture; format: functional; remark: listed apart in the source
# Bacillus anthracis [24] = assay: microbe, parasite or virus in culture; format: functional; remark: listed apart in the source
# Bacillus anthracis [25] = assay: microbe, parasite or virus in culture; format: functional; remark: listed apart in the source
# Bacillus anthracis [26] = assay: microbe, parasite or virus in culture; format: functional; remark: listed apart in the source
# Bacillus anthracis [27] = assay: microbe, parasite or virus in culture; format: functional; remark: listed apart in the source
# Bacillus anthracis [28] = assay: microbe, parasite or virus in culture; format: functional; remark: listed apart in the source
# Bacillus anthracis [29] = assay: microbe, parasite or virus in culture; format: functional; remark: listed apart in the source
# Bacillus anthracis [30] = details: Ames, 30 mg/kg
# Bacillus anthracis [31] = assay: animal or person; details: Ames, in Mus musculus, ip
Structure (SMILES),MIC (Bacillus anthracis [1]),MIC (Bacillus anthracis [2]),MIC (Bacillus anthracis [3]),MIC (Bacillus anthracis [4]),MIC (Bacillus anthracis [5]),MIC (Bacillus anthracis [6]),MIC (Bacillus anthracis [7]),MIC (Bacillus anthracis [8]),MIC (Bacillus anthracis [9]),MIC (Bacillus anthracis [10]),MIC (Bacillus anthracis [11]),MIC (Bacillus anthracis [13]),MIC (Bacillus anthracis [14]),MIC (Bacillus anthracis [15]),MIC (Bacillus anthracis [16]),MIC (Bacillus anthracis [17]),MIC (Bacillus anthracis [18]),MIC (Bacillus anthracis [19]),MIC (Bacillus anthracis [20]),MIC (Bacillus anthracis [21]),further results
CC[C@H]1OC(=O)[C@H](C)[C@@H](O[C@H]2C[C@@](C)(OC)[C@@H](O)[C@H](C)O2)[C@H](C)[C@@H](O[C@@H]2O[C@H](C)C[C@H](N(C)C)[C@H]2O)[C@](C)(O)C[C@@H](C)CN(C)[C@H](C)[C@@H](O)[C@]1(C)O [AZITHROMYCIN],2 µg/mL,2 µg/mL,2 µg/mL,2 µg/mL,4 µg/mL,1 µg/mL,2 µg/mL,2 µg/mL,2 µg/mL,4 µg/mL,4 µg/mL,4 µg/mL,4 µg/mL,4 µg/mL,4 µg/mL,4 µg/mL,4 µg/mL,4 µg/mL,4 µg/mL,4 µg/mL,MIC (Bacillus anthracis [12]): 4 µg/mL; MIC (Bacillus anthracis [22]): 4 µg/mL; MIC (Bacillus anthracis [23]): 4 µg/mL; MIC (Bacillus anthracis [24]): 4 µg/mL; MIC (Bacillus anthracis [25]): 4 µg/mL; MIC (Bacillus anthracis [26]): 4 µg/mL; MIC (Bacillus anthracis [27]): 2 µg/mL; MIC (Bacillus anthracis [28]): 2 µg/mL; MIC (Bacillus anthracis [29]): 4 µg/mL
O=C(O)c1cn(C2CC2)c2cc(N3CCNCC3)c(F)cc2c1=O [CIPROFLOXACIN],≤ 0.06 µg/mL,≤ 0.06 µg/mL,0.12 µg/mL,≤ 0.06 µg/mL,≤ 0.06 µg/mL,0.25 µg/mL,≤ 0.06 µg/mL,≤ 0.06 µg/mL,≤ 0.06 µg/mL,0.25 µg/mL,0.12 µg/mL,0.12 µg/mL,0.12 µg/mL,≤ 0.06 µg/mL,≤ 0.06 µg/mL,0.12 µg/mL,0.12 µg/mL,0.12 µg/mL,≤ 0.06 µg/mL,≤ 0.06 µg/mL,MIC (Bacillus anthracis [22]): 0.12 µg/mL; MIC (Bacillus anthracis [23]): ≤ 0.06 µg/mL; MIC (Bacillus anthracis [24]): 0.25 µg/mL; MIC (Bacillus anthracis [25]): 1 µg/mL; MIC (Bacillus anthracis [26]): ≤ 0.06 µg/mL; MIC (Bacillus anthracis [27]): ≤ 0.06 µg/mL; MIC (Bacillus anthracis [28]): 0.12 µg/mL; MIC (Bacillus anthracis [29]): ≤ 0.06 µg/mL; inhibition (Bacillus anthracis [30]): Active; survival at 60 mg/kg (Bacillus anthracis [31]): 90%
C[C@H]1c2cccc(O)c2C(=O)C2=C(O)[C@]3(O)C(=O)C(C(N)=O)=C(O)[C@@H](N(C)C)[C@@H]3[C@@H](O)[C@@H]21.O [DOXYCYCLINE],≤ 0.06 µg/mL,≤ 0.06 µg/mL,≤ 0.06 µg/mL,≤ 0.06 µg/mL,≤ 0.06 µg/mL,≤ 0.06 µg/mL,≤ 0.06 µg/mL,≤ 0.06 µg/mL,≤ 0.06 µg/mL,0.25 µg/mL,≤ 0.06 µg/mL,≤ 0.06 µg/mL,≤ 0.06 µg/mL,≤ 0.06 µg/mL,≤ 0.06 µg/mL,≤ 0.06 µg/mL,≤ 0.06 µg/mL,≤ 0.06 µg/mL,≤ 0.06 µg/mL,≤ 0.06 µg/mL,MIC (Bacillus anthracis [12]): ≤ 0.06 µg/mL; MIC (Bacillus anthracis [22]): ≤ 0.06 µg/mL; MIC (Bacillus anthracis [23]): ≤ 0.06 µg/mL; MIC (Bacillus anthracis [24]): ≤ 0.06 µg/mL; MIC (Bacillus anthracis [25]): ≤ 0.06 µg/mL; MIC (Bacillus anthracis [26]): ≤ 0.06 µg/mL; MIC (Bacillus anthracis [27]): ≤ 0.06 µg/mL; MIC (Bacillus anthracis [28]): ≤ 0.06 µg/mL; MIC (Bacillus anthracis [29]): ≤ 0.06 µg/mL
C[C@@H](O)[C@H]1C(=O)N2C(C(=O)O)=C(S[C@@H]3CN[C@H](C(=O)N(C)C)C3)[C@H](C)[C@H]12 [MEROPENEM],0.5 µg/mL,0.06 µg/mL,0.12 µg/mL,≤ 0.06 µg/mL,32 µg/mL,≤ 0.06 µg/mL,< 0.06 µg/mL,4 µg/mL,0.12 µg/mL,0.25 µg/mL,0.12 µg/mL,0.12 µg/mL,0.12 µg/mL,0.12 µg/mL,0.12 µg/mL,0.12 µg/mL,0.12 µg/mL,0.25 µg/mL,8 µg/mL,0.12 µg/mL,MIC (Bacillus anthracis [12]): 0.12 µg/mL; MIC (Bacillus anthracis [22]): 0.25 µg/mL; MIC (Bacillus anthracis [23]): 0.25 µg/mL; MIC (Bacillus anthracis [24]): 0.25 µg/mL; MIC (Bacillus anthracis [25]): 0.25 µg/mL; MIC (Bacillus anthracis [26]): 0.12 µg/mL; MIC (Bacillus anthracis [27]): 0.12 µg/mL; MIC (Bacillus anthracis [28]): 0.25 µg/mL; MIC (Bacillus anthracis [29]): 0.12 µg/mL
CC1(C)S[C@@H]2[C@H](NC(=O)Cc3ccccc3)C(=O)N2[C@H]1C(=O)O [PENICILLIN G],2 µg/mL,4 µg/mL,4 µg/mL,4 µg/mL,32 µg/mL,1 µg/mL,1 µg/mL,8 µg/mL,8 µg/mL,2 µg/mL,1 µg/mL,2 µg/mL,1 µg/mL,2 µg/mL,2 µg/mL,1 µg/mL,1 µg/mL,2 µg/mL,2 µg/mL,2 µg/mL,MIC (Bacillus anthracis [12]): 2 µg/mL; MIC (Bacillus anthracis [22]): 1 µg/mL; MIC (Bacillus anthracis [23]): 8 µg/mL; MIC (Bacillus anthracis [24]): 4 µg/mL; MIC (Bacillus anthracis [25]): 2 µg/mL; MIC (Bacillus anthracis [26]): 4 µg/mL; MIC (Bacillus anthracis [27]): 4 µg/mL; MIC (Bacillus anthracis [28]): 4 µg/mL; MIC (Bacillus anthracis [29]): 2 µg/mL
CN(C)[C@@H]1C(O)=C(C(N)=O)C(=O)[C@@]2(O)C(O)=C3C(=O)c4c(O)cccc4[C@@](C)(O)[C@H]3C[C@@H]12 [TETRACYCLINE],≤ 0.06 µg/mL,≤ 0.06 µg/mL,≤ 0.06 µg/mL,≤ 0.06 µg/mL,≤ 0.06 µg/mL,≤ 0.06 µg/mL,≤ 0.06 µg/mL,≤ 0.06 µg/mL,≤ 0.06 µg/mL,≤ 0.06 µg/mL,≤ 0.06 µg/mL,≤ 0.06 µg/mL,≤ 0.06 µg/mL,≤ 0.06 µg/mL,≤ 0.06 µg/mL,≤ 0.06 µg/mL,≤ 0.06 µg/mL,≤ 0.06 µg/mL,≤ 0.06 µg/mL,≤ 0.06 µg/mL,MIC (Bacillus anthracis [12]): ≤ 0.06 µg/mL; MIC (Bacillus anthracis [22]): ≤ 0.06 µg/mL; MIC (Bacillus anthracis [23]): ≤ 0.06 µg/mL; MIC (Bacillus anthracis [24]): ≤ 0.06 µg/mL; MIC (Bacillus anthracis [25]): ≤ 0.06 µg/mL; MIC (Bacillus anthracis [26]): ≤ 0.06 µg/mL; MIC (Bacillus anthracis [27]): ≤ 0.06 µg/mL; MIC (Bacillus anthracis [28]): ≤ 0.06 µg/mL; MIC (Bacillus anthracis [29]): ≤ 0.06 µg/mL
